The values below come from patent publication US8232298B2, “Inhibitors of the interaction between MDM2 and P53” (Janssen Pharmaceutica N.V., priority 2006, dated 2012).

Each structure is given as a SMILES string. Like-named read-outs stand apart in the source and are kept apart here.

One data set has as its system U87MG cells. The data set is described as follows: Proliferation assay (MTT) on U87MG tumour cells. It counts as cell-based. Particulars: Homo sapiens, U-87 MG. How it is done:
Cellular activity of the compounds of formula (I) was determined on U87MG tumour cells using a colorimetric assay for cell toxicity or survival (see example C.2).
U87MG cells are human glioblastoma cells with wild type p53. In this cell line MDM2 tightly controls p53 expression.
All compounds tested were dissolved in DMSO and further dilutions were made in culture medium. Final DMSO concentrations never exceeded 0.1% (v/v) in cell proliferation assays. Controls contained U87MG cells and DMSO without compound and blanks contained DMSO but no cells.
U87MG cells were seeded in 96-well cell culture plates at 3000 cells/well/100 μl. 24 hours later, medium was changed and compound and/or solvent were added to a final volume of 200 μl. Following 4 days of incubation, medium was replaced by 200 μl fresh medium and cell growth was assessed using a MTT-based assay. Therefore, 25 μl of the MTT solution (0.5% MTT research grade from Serva in phosphate-buffered saline ) was added to each well and the cells were further incubated for 2 hours at 37° C. The medium was then carefully aspirated and the blue MTT-formazan product was dissolved by adding to each well 25 μl 0.1M glycin and 100 μl DMSO. The plates were shaken for another 10 min on a micro plate shaker before reading absorbance at 540 nm by a Biorad micro plate reader.
Within an experiment, the results for each experimental condition are the mean of 3 replicate wells. For initial screening purposes, compounds were tested at a single fixed concentration of 10^−5 M. For active compounds, the experiments were repeated to establish full concentration-response curves. For each experiment, controls (containing no drug) and a blank incubation (containing no cells or drugs) were run in parallel. The blank value was subtracted from all control and sample values. For each sample, the mean value for cell growth (in absorbance units) was expressed as a percentage of the mean value for cell growth of the control. When appropriate, IC50-values (concentration of the drug, needed to reduce cell growth to 50% of the control) were computed using probit analysis for graded data (Finney, D. J., Probit Analyses, 2nd Ed. Chapter 10, Graded Responses, Cambridge University Press, Cambridge 1962). Herein the effects of test compounds are expressed as pIC50 (the negative log value of the IC50-value) (see table F-2).
In some of the experiments the proliferation assay was adapted for and used in 384-well culture plates (see table F-2).

The next data set concerns p53 in A2780 cells. The data set is described as follows: p53 ELISA: capacity to preserve p53 in A2780 cells. The data set is classed as cell-based. Particulars: treated with compound for 16 hours, in M. The method, then:
The capacity of the compounds to preserve p53 in A2780 cells was measured with the p53 enzyme linked immunosorbent assay. The p53 assay is a “sandwich” enzyme immunoassay employing two polyclonal antibodies. A polyclonal antibody, specific for the p53 protein, has been immobilized onto the surface of the plastic wells. Any p53 present in the sample to be assayed will bind to the capture antibody. The biotinylated detector polyclonal antibody also recognizes p53 protein, and will bind to any p53, which has been retained by the capture antibody. The detector antibody, in turn, is bond by horseradish peroxidase-conjugated streptavidin. The horseradish peroxidase catalyses the conversion of the chromogenic substrate o-phenylene diamine, the intensity of which is proportional to the amount of p53 protein bond to the plate. The colored reaction product is quantified using a spectrophotometer. Quantitation is achieved by the construction of a standard curve using known concentrations of purified recombinant HIS tagged p53 protein (see example C.1.).
A2780 cells (ATCC) were cultivated in RPMI 1640 supplemented with 10% fetal calf serum (FCS), 2 mM L-glutamine and gentamycin at 37° C. in a humidified incubator with 5% CO2.
A2780 cells were seeded at 20.000 cells per well in a 96 well plate, cultured for 24 hours and treated with compound for 16 hours at 37° C. in a humidified incubator. After incubation, the cells were washed once with phosphate-buffered saline and 30 μl, per well, low salt RIPA buffer (20 mM tris, pH7.0, 0.5 mM EDTA, 1% Nonidet P40, 0.5% DOC, 0.05% SDS, 1 mM PMSF, 1 μg/ml aprotinin and 0.5 μ/ml leupeptin) was added. Plates were placed on ice for 30 minutes to complete the lysis. p53 protein was detected in de lysates by using the sandwich ELISA, described below.
High binding polystyrene EIA/RIA 96 well plates (Costar 9018) were coated with the capture antibody pAb1801 (Abeam ab28-100) at a concentration of 1 μg/ml in coating buffer (0.1 M NaHCO3 pH8.2), 50 μl per well. The antibody was allowed to adhere overnight at 4° C. Coated plates were washed once with phosphate-buffered saline (PBS)/0.05% Tween 20 and 300 μl of blocking buffer (PBS, 1% bovine serum albumins (BSA)) was added, for an incubation period of 2 hours at room temperature. Dilutions of purified recombinant HIS tagged p53 protein, ranging from 3-200 ng/ml, were made in blocking buffer and used as standards.
Plates were washed twice with PBS/0.05% Tween 20 and blocking buffer or standards were added at 80 μl/well. To the standards, 20 μl of lysis buffer was added. The samples were added to the other wells at 20 μl lysate/well. After an overnight incubation at 4° C., plates were washed twice with PBS/0.05% Tween 20. Aliquots of 100 μl secondary polyclonal antibody p53(FL-393) (Tebubio, sc-6243) at a concentration of 1 μg/ml in blocking buffer were added to each well and allowed to adhere for 2 hours at room temperature. Plates were washed three times with PBS /0.05% Tween 20. Detection antibody anti-rabbit HRP (sc-2004, Tebubio) at 0.04 μg/ml in PBS/1% BSA was added and incubated for 1 hour at room temperature. Plates were washed three times with PBS/0.05% Tween 20 and 100 μl of substrate buffer was added (substrate buffer was prepared shortly before use by adding 1 tablet of 10 mg o-phenylene diamine (OPD) from Sigma and 125 μl 3% H2O2 to 25 ml OPD buffer: 35 mM citric acid, 66 mM Na2HPO4, pH5.6). After 5 to 10 minutes, colour reaction was stopped by adding 50 μl stop buffer (1 M H2SO4) per well. The absorbance at dual wavelengths of 490/655 nm was measured using a Biorad micro plate reader and the results were then analyzed.
For each experiment, controls (containing no drug) and a blank incubation (containing no cells or drugs) were run in parallel. The blank value was subtracted from all control and sample values. For each sample, the value of p53 (in absorbance units) was expressed as the percentage of the value for p53 present in the control. […]
(ELISA stands for enzyme-linked immunosorbent assay.)

Setting [1] is: 96 h, 96-well plates, 4 days of incubation, read-out: cell proliferation pIC50 96 well (converted).
[2] abbreviates: 384-well culture plates, read-out: cell proliferation pIC50 384 well (converted).

Consider `c1ccc2c(CCNc3ccc(Nc4ccncc4)cc3)coc2c1` [Compound 1], for which the melting point – broadly, the temperature, or range, at which the solid turns liquid – fell in the range of 152 to 154 °C. Further, in the data set on U87MG cells (setting [1]), the IC50 was 3.24 µM. In addition, the “A2780 p53-elisa LAD (lowest dose giving at least 140% of the value for p53 present in the control)” value with p53 in A2780 cells came to 1.0E−05.

Compound `c1cnc2[nH]cc(CCNc3ccc(Nc4ccncc4)cc3)c2c1` [Compound 2] came in with a melting point of 182 °C. Further, the IC50 in the data set with U87MG cells (setting [1]) was 4.37 µM. Also, the “A2780 p53-elisa LAD (lowest dose giving at least 140% of the value for p53 present in the control)” value in the data set with p53 in A2780 cells was found to be 3.0E−06.

`c1cc(Nc2ccc(NCCc3cnc4n3CCCC4)cc2)ccn1` [Compound 3] returned a melting point of 256 °C. The IC50 in the data set with U87MG cells (setting [1]) was 7.08 µM. Further, in the data set with p53 in A2780 cells, the “A2780 p53-elisa LAD (lowest dose giving at least 140% of the value for p53 present in the control)” value amounted to 3.0E−06.

Take `c1cc(Nc2ccc(Nc3ccc4[nH]ccc4c3)cc2)ccn1` [Compound 4]: the IC50 in the data set with U87MG cells (setting [2]) is 1.41 µM. The “A2780 p53-elisa LAD (lowest dose giving at least 140% of the value for p53 present in the control)” value in the data set with p53 in A2780 cells worked out at 1.0E−06.

`COc1ccc2c(CCNc3ccc(Nc4ccncc4)cc3)coc2c1` [Compound 5] returned a melting point of 184 to 186 °C. Further, in the data set on U87MG cells (setting [1]), the IC50 was 4.47 µM. In addition, in the data set with p53 in A2780 cells, the “A2780 p53-elisa LAD (lowest dose giving at least 140% of the value for p53 present in the control)” value worked out at 1.0E−05.

With `c1cc(Nc2ccc(NCCc3c[nH]c4sccc34)cc2)ccn1` [Compound 6], the IC50 in the data set with U87MG cells (setting [2]) was more than 10 µM. For the same compound, the “A2780 p53-elisa LAD (lowest dose giving at least 140% of the value for p53 present in the control)” value with p53 in A2780 cells was found to be 1.0E−05.
